The source of these data is PubChem BioAssay (NCI).

Among the test systems are CCRF-CEM leukemia; SNB-75 CNS; U251 CNS; T-47D breast; NCI-H226 lung; NCI/ADR-RES ovarian; MOLT-4 leukemia; SR leukemia; RPMI-8226 leukemia; SF-539 CNS; HCT-116 colon; UO-31 renal; SK-MEL-28 melanoma; EKVX NSCLC; MDA-MB-231 breast; HCT-15 colon; SK-MEL-2 melanoma; MDA-N.
What all share (assay): inhibition of tumour cell growth, NCI panel, 48 h

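Tested at 5 concentrations; 48 h exposure; 96-well plates; endpoints linearly interpolated, else capped at highest concentration. TGI: concentration producing complete growth inhibition.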

As to `COC1(OC)C=CC2C1C1C=CC2C1(OC)OC` (stereo not drawn), the TGI with CCRF-CEM leukemia, with SNB-75 CNS, in the test on U251 CNS, with T-47D breast, in the test on NCI-H226 lung and with NCI/ADR-RES ovarian was more than 100 µM throughout. The TGI in the test with MOLT-4 leukemia, in the test on SR leukemia, with RPMI-8226 leukemia, in the test on SF-539 CNS, with HCT-116 colon and in the test on UO-31 renal was more than 100 µM throughout. For the same compound, the TGI in the test on SK-MEL-28 melanoma, with EKVX NSCLC, with MDA-MB-231 breast, with HCT-15 colon and in the test on SK-MEL-2 melanoma was more than 100 µM each time.
With `O=c1c(-c2ccccc2F)coc2cc(F)ccc12`, the TGI is more than 100 µM with CCRF-CEM leukemia; more than 100 µM in the test on MDA-N; 96.4 µM in the test on SNB-75 CNS; more than 100 µM with U251 CNS; more than 100 µM in the test on T-47D breast; more than 100 µM in the test with NCI-H226 lung. In addition, the TGI with MOLT-4 leukemia, with SF-539 CNS, in the test with HCT-116 colon, with UO-31 renal, in the test with SK-MEL-28 melanoma and with EKVX NSCLC was more than 100 µM throughout. Moreover, the TGI with MDA-MB-231 breast, with HCT-15 colon and in the test on SK-MEL-2 melanoma was more than 100 µM in each case.
As for `COc1cc2c(cc1OC)CC1c3cc(OC)c(OC)cc3CCN1CC2` (stereo not drawn), the TGI in the test on CCRF-CEM leukemia, in the test with SNB-75 CNS, in the test on U251 CNS, in the test with T-47D breast, with NCI-H226 lung and in the test on NCI/ADR-RES ovarian was more than 100 µM in each case. Moreover, the TGI in the test with MOLT-4 leukemia, in the test with SR leukemia, in the test on RPMI-8226 leukemia, with SF-539 CNS, in the test with HCT-116 colon and in the test on UO-31 renal was more than 100 µM each time. The TGI in the test on SK-MEL-28 melanoma, in the test with EKVX NSCLC, with MDA-MB-231 breast, in the test with HCT-15 colon and in the test with SK-MEL-2 melanoma was more than 100 µM in each case.
Take `CC(C)(C)OC(=O)NCCCC(=O)NC1(c2cc3ccccc3s2)CCCCC1`: the TGI is 28.4 µM in the test on CCRF-CEM leukemia; 34.2 µM in the test on MDA-N; 27.7 µM with SNB-75 CNS; more than 100 µM with T-47D breast; 70 µM in the test with NCI/ADR-RES ovarian; 34.4 µM in the test on MOLT-4 leukemia. Moreover, the TGI in the test on SR leukemia worked out at 27.9 µM; with RPMI-8226 leukemia, 29.6 µM; in the test with SF-539 CNS it was 30.7 µM; with HCT-116 colon it was 30.1 µM; with UO-31 renal, 14.8 µM; in the test on SK-MEL-28 melanoma, 31.3 µM. For the same compound, the TGI with EKVX NSCLC is 35.9 µM; in the test with HCT-15 colon, 45.5 µM.
Regarding `CN(C)CCNC(=O)Cn1cnc2cccc([N+](=O)[O-])c2c1=O`, the TGI in the test with CCRF-CEM leukemia, in the test on MDA-N, in the test on U251 CNS, with T-47D breast, in the test on NCI-H226 lung and with NCI/ADR-RES ovarian was more than 100 µM throughout. Moreover, the TGI in the test on MOLT-4 leukemia, in the test on SR leukemia, with RPMI-8226 leukemia, with SF-539 CNS, in the test with HCT-116 colon and in the test with UO-31 renal was more than 100 µM each time. The TGI in the test on SK-MEL-28 melanoma, with EKVX NSCLC, in the test on HCT-15 colon and in the test with SK-MEL-2 melanoma was more than 100 µM throughout.
For the compound `CCN(CC)c1ccc(/C=C/C(=O)c2cc(C(C)(C)C)c(O)c(C(C)(C)C)c2)cc1`, the TGI in the test with CCRF-CEM leukemia was more than 66 µM; with MDA-N, 13.5 µM; in the test on SNB-75 CNS it was more than 100 µM; with U251 CNS it was 11.9 µM; in the test on NCI-H226 lung, 99.1 µM; in the test with NCI/ADR-RES ovarian, 26.9 µM. In addition, the TGI in the test on MOLT-4 leukemia is more than 100 µM; in the test on SR leukemia, more than 24.5 µM; with RPMI-8226 leukemia it was 38.8 µM; with SF-539 CNS, 10.5 µM; in the test on HCT-116 colon, more than 39.1 µM; with UO-31 renal it was more than 100 µM. Moreover, the TGI is more than 100 µM in the test on SK-MEL-28 melanoma; more than 100 µM with EKVX NSCLC; 48.1 µM in the test with MDA-MB-231 breast; more than 100 µM in the test with HCT-15 colon; more than 71.5 µM with SK-MEL-2 melanoma.
In the case of `Nc1ccc(C23CC4CC(C2)CC(c2ccc(N)cc2)(C4)C3)cc1`, the TGI with CCRF-CEM leukemia is 29.7 µM; in the test on MDA-N it was more than 100 µM; in the test on U251 CNS it was 35.6 µM; in the test with NCI-H226 lung it was 44.9 µM; with NCI/ADR-RES ovarian, more than 100 µM; with MOLT-4 leukemia, 28.4 µM. The TGI was 38.5 µM in the test on SR leukemia; 27.4 µM in the test on RPMI-8226 leukemia; 31.1 µM in the test with SF-539 CNS; more than 100 µM in the test with HCT-116 colon; more than 100 µM with UO-31 renal; more than 100 µM in the test on SK-MEL-28 melanoma. Also, the TGI with EKVX NSCLC was 81.6 µM; in the test on HCT-15 colon, more than 100 µM; with SK-MEL-2 melanoma, more than 100 µM.
For `CN(C)c1nncc2n[nH]nc12`, the TGI with CCRF-CEM leukemia, in the test with MDA-N, in the test on SNB-75 CNS, with U251 CNS, in the test with T-47D breast and in the test on NCI-H226 lung was more than 100 µM in each case. Besides, the TGI in the test with NCI/ADR-RES ovarian, in the test with MOLT-4 leukemia, in the test on SR leukemia, in the test with RPMI-8226 leukemia, in the test on SF-539 CNS and in the test on HCT-116 colon was more than 100 µM each time. Also, the TGI in the test on UO-31 renal, in the test on SK-MEL-28 melanoma, in the test on EKVX NSCLC, in the test with HCT-15 colon and with SK-MEL-2 melanoma was more than 100 µM in each case.
